From patent US6395896B2, “Pyridazine derivatives, manufacturing method and related composition” (Shiseido Co., Ltd., priority 1999, dated 2002)

Tests used:
[1] = Stability test in case of including UV shielding agent of inorganic powder (sun-screen cream); format: physicochemical; conditions: sun-screen cream with inorganic powder, 10.0 wt % ultraviolet absorbent; 2 months at 50° C.; visual observation
Experimental: The sun screen cream of the following formulation was manufactured. These were preserved for 2 months at 50° C. By visual observation of discoloration, the inventors have checked stability when using an UV shielding agent of inorganic powder which is included as external skin preparation for the ultraviolet rays defense.
After (2) was added to (1) and was swelled sufficiently, (3) to (11) was added thereto and was mixed with heating. The mixture was sufficiently dissolved with dispersing. This dispersed liquid was kept at 70° C. After this dispersed liquid was emulsified homogeneously by homomixer with adding a mixture of (12) to (15) gradually, which was cooled to 30° C. with stirring well to obtain sun screen.

[2] = Perfume stabilization effect (photostabilizer, sunlight exposure, judgement by perfumier); parameters: key to Sunlight exposure (80 MJ) Smell evaluation / Sunlight exposure (80 MJ) evaluation: A: No change; B: No almost change; C: Yes change
Experimental: Next, the photostabilization effect for each perfume was studied by the following evaluation formulation.
Each test sample was prepared. Change of smell of sample exposed to sunlight (80 MJ) was observed (judgement by perfumier).

With `Oc1nncc(N2CCOCC2)c1N1CCOCC1` [4,5-Dimorpholino-3-hydroxypyridazine] the Discoloration [1] was “No”, the “Sunlight exposure (80 MJ) Smell evaluation” value ([2]; Base perfume Aldehyde 0.03 wt %, photostabilizer 0.2 wt %) was “A” and the “Sunlight exposure (80 MJ) Smell evaluation” value ([2]; Base perfume Animal 0.03 wt %, photostabilizer 0.3 wt %) was “A”. The “Sunlight exposure (80 MJ) Smell evaluation” value ([2]; Base perfume Chypre 0.03 wt %, photostabilizer 0.01 wt %) was “A”, the “Sunlight exposure (80 MJ) Smell evaluation” value ([2]; Base perfume Citrus 0.03 wt %, photostabilizer 0.03 wt %) was “A” and the “Sunlight exposure (80 MJ) Smell evaluation” value ([2]; Base perfume Fougere 0.03 wt %, photostabilizer 0.1 wt %) was “A”. For the same compound, the “Sunlight exposure (80 MJ) Smell evaluation” value ([2]; Base perfume Fruity 0.03 wt %, photostabilizer 0.1 wt %) was “A”, the “Sunlight exposure (80 MJ) Smell evaluation” value ([2]; Base perfume Green 0.03 wt %, photostabilizer 0.05 wt %) was “A” and the “Sunlight exposure (80 MJ) Smell evaluation” value ([2]; Base perfume Jasmine 0.03 wt %, photostabilizer 0.01 wt %) was “A”. The “Sunlight exposure (80 MJ) Smell evaluation” value ([2]; Base perfume Muguet 0.03 wt %, photostabilizer 0.05 wt %) was “A”, the “Sunlight exposure (80 MJ) Smell evaluation” value ([2]; Base perfume Oriental 0.03 wt %, photostabilizer 0.1 wt %) was “A” and the “Sunlight exposure (80 MJ) Smell evaluation” value ([2]; Base perfume Rose 0.03 wt %, photostabilizer 0.05 wt %) was “A”. The “Sunlight exposure (80 MJ) Smell evaluation” value ([2]; Base perfume Spicy 0.03 wt %, photostabilizer 0.2 wt %) was “A”, the “Sunlight exposure (80 MJ) Smell evaluation” value ([2]; Base perfume Woody 0.03 wt %, photostabilizer 0.1 wt %) was “A” and the “Sunlight exposure (80 MJ) Smell evaluation” value ([2]; Natural perfume Jasmine oil 0.03 wt %, photostabilizer 0.05 wt %) was “A”. For the same compound, the “Sunlight exposure (80 MJ) Smell evaluation” value ([2]; Natural perfume Lavender oil 0.03 wt %, photostabilizer 0.1 wt %) was “A”, the “Sunlight exposure (80 MJ) Smell evaluation” value ([2]; Natural perfume Neroli oil 0.03 wt %, photostabilizer 0.1 wt %) was “A” and the “Sunlight exposure (80 MJ) Smell evaluation” value ([2]; Natural perfume Rose oil 0.03 wt %, photostabilizer 0.05 wt %) was “A”. For the same compound, the “Sunlight exposure (80 MJ) Smell evaluation” value ([2]; Natural perfume Ylang ylang oil 0.03 wt %, photostabilizer 0.2 wt %) was “A”, the “Sunlight exposure (80 MJ) Smell evaluation” value ([2]; Synthetic perfume Citral 0.03 wt %, photostabilizer 0.1 wt %) was “A” and the “Sunlight exposure (80 MJ) Smell evaluation” value ([2]; Synthetic perfume Limonene 0.03 wt %, photostabilizer 0.05 wt %) was “A”. For the same compound, the “Sunlight exposure (80 MJ) Smell evaluation” value ([2]; Synthetic perfume Linalool 0.03 wt %, photostabilizer 0.05 wt %) was “A”, the “Sunlight exposure (80 MJ) Smell evaluation” value ([2]; Synthetic perfume Linalyl acetate 0.03 wt %, photostabilizer 0.1 wt %) was “A” and the “Sunlight exposure (80 MJ) Smell evaluation” value ([2]; Synthetic perfume Rose oxide 0.03 wt %, photostabilizer 0.2 wt %) was “A”. The change of smell ([2]; base perfume, summary of Table 19) was “very small in comparison with other photostabilizers”, the “Sunlight exposure (80 MJ) evaluation” value ([2]; natural perfume Ambergris oil, photostabilizer amount 0.3 wt %) was “A” and the “Sunlight exposure (80 MJ) evaluation” value ([2]; natural perfume Bergamot oil, photostabilizer amount 0.1 wt %) was “A”. For the same compound, the “Sunlight exposure (80 MJ) evaluation” value ([2]; natural perfume Castoreum oil, photostabilizer amount 0.3 wt %) was “A”, the “Sunlight exposure (80 MJ) evaluation” value ([2]; natural perfume Cinnamon oil, photostabilizer amount 0.01 wt %) was “A” and the “Sunlight exposure (80 MJ) evaluation” value ([2]; natural perfume Civet oil, photostabilizer amount 0.2 wt %) was “A”. For the same compound, the “Sunlight exposure (80 MJ) evaluation” value ([2]; natural perfume Clary sage oil, photostabilizer amount 0.03 wt %) was “A”, the “Sunlight exposure (80 MJ) evaluation” value ([2]; natural perfume Cloves oil, photostabilizer amount 0.03 wt %) was “A” and the “Sunlight exposure (80 MJ) evaluation” value ([2]; natural perfume Coriander oil, photostabilizer amount 0.01 wt %) was “A”. For the same compound, the “Sunlight exposure (80 MJ) evaluation” value ([2]; natural perfume Geranium oil, photostabilizer amount 0.03 wt %) was “A”, the “Sunlight exposure (80 MJ) evaluation” value ([2]; natural perfume Lemon oil, photostabilizer amount 0.001 wt %) was “A” and the “Sunlight exposure (80 MJ) evaluation” value ([2]; natural perfume Moss oil, photostabilizer amount 0.2 wt %) was “A”. For the same compound, the “Sunlight exposure (80 MJ) evaluation” value ([2]; natural perfume Nutmeg oil, photostabilizer amount 0.01 wt %) was “A”, the “Sunlight exposure (80 MJ) evaluation” value ([2]; natural perfume Oakmoss oil, photostabilizer amount 0.2 wt %) was “A” and the “Sunlight exposure (80 MJ) evaluation” value ([2]; natural perfume Opopanax oil, photostabilizer amount 0.1 wt %) was “A”. For the same compound, the “Sunlight exposure (80 MJ) evaluation” value ([2]; natural perfume Orange oil, photostabilizer amount 0.1 wt %) was “A”, the “Sunlight exposure (80 MJ) evaluation” value ([2]; natural perfume Orris oil, photostabilizer amount 0.2 wt %) was “A” and the “Sunlight exposure (80 MJ) evaluation” value ([2]; natural perfume Patchouli oil, photostabilizer amount 0.01 wt %) was “A”. The “Sunlight exposure (80 MJ) evaluation” value ([2]; natural perfume Pepper oil, photostabilizer amount 0.001 wt %) was “A”, the “Sunlight exposure (80 MJ) evaluation” value ([2]; natural perfume Peppermint oil, photostabilizer amount 0.03 wt %) was “A” and the “Sunlight exposure (80 MJ) evaluation” value ([2]; natural perfume Sandals wood oil, photostabilizer amount 0.01 wt %) was “A”. The “Sunlight exposure (80 MJ) evaluation” value ([2]; natural perfume Tuberose oil, photostabilizer amount 0.03 wt %) was “A”, the “Sunlight exposure (80 MJ) evaluation” value ([2]; natural perfume Vetiver oil, photostabilizer amount 0.2 wt %) was “A” and the change of smell ([2]; natural perfume, summary of Table 17) was “very small in comparison with other photostabilizers”. The “Sunlight exposure (80 MJ) Smell evaluation” value ([2]; synthetic perfume 2,6-Nonadienal, photostabilizer amount 0.03 wt %) was “A”, the “Sunlight exposure (80 MJ) Smell evaluation” value ([2]; synthetic perfume Benzyl benzoate, photostabilizer amount 0.1 wt %) was “A” and the “Sunlight exposure (80 MJ) Smell evaluation” value ([2]; synthetic perfume Cyclopentadecanone, photostabilizer amount 0.05 wt %) was “A”. For the same compound, the “Sunlight exposure (80 MJ) Smell evaluation” value ([2]; synthetic perfume Eugenol, photostabilizer amount 0.1 wt %) was “A”, the “Sunlight exposure (80 MJ) Smell evaluation” value ([2]; synthetic perfume Farnesol, photostabilizer amount 0.01 wt %) was “A” and the “Sunlight exposure (80 MJ) Smell evaluation” value ([2]; synthetic perfume I-Carvone, photostabilizer amount 0.05 wt %) was “A”. The “Sunlight exposure (80 MJ) Smell evaluation” value ([2]; synthetic perfume Indole, photostabilizer amount 0.2 wt %) was “A”, the “Sunlight exposure (80 MJ) Smell evaluation” value ([2]; synthetic perfume Lilial, photostabilizer amount 0.3 wt %) was “A” and the “Sunlight exposure (80 MJ) Smell evaluation” value ([2]; synthetic perfume Lyral, photostabilizer amount 0.3 wt %) was “A”. For the same compound, the “Sunlight exposure (80 MJ) Smell evaluation” value ([2]; synthetic perfume Phenylacetaldehyde dimethyl acetal, photostabilizer amount 0.2 wt %) was “A”, the “Sunlight exposure (80 MJ) Smell evaluation” value ([2]; synthetic perfume cis-3-Hexenol, photostabilizer amount 0.01 wt %) was “A” and the “Sunlight exposure (80 MJ) Smell evaluation” value ([2]; synthetic perfume α-Hexyl cinnamic aldehyde, photostabilizer amount 0.03 wt %) was “A”. For the same compound, the “Sunlight exposure (80 MJ) Smell evaluation” value ([2]; synthetic perfume β-Caryophyllene, photostabilizer amount 0.01 wt %) was “A”, the “Sunlight exposure (80 MJ) Smell evaluation” value ([2]; synthetic perfume β-Ionone, photostabilizer amount 0.05 wt %) was “A” and the “Sunlight exposure (80 MJ) Smell evaluation” value ([2]; synthetic perfume β-Phenylethyl alcohol, photostabilizer amount 0.03 wt %) was “A”. The “Sunlight exposure (80 MJ) Smell evaluation” value ([2]; synthetic perfume γ-Undecalactone, photostabilizer amount 0.1 wt %) was “A” and the change of smell ([2]; synthetic perfume, summary of Table 18) was “very small in comparison with other photostabilizers”.
